Measurements published in US11065239B2, “Use of EZH2 inhibitor combined with BTK inhibitor in preparing drug for treating tumor” (Jiangsu Hengrui Medicine Co., Ltd., priority 2017, dated 2021).

Legend:
[1] = system: human B cell lymphoma SU-DHL-4 cells; assay: Proliferation of SU-DHL-4 cells in vitro (MTT); assay type: cell-based; settings: single compound, 72 hours
Protocol: (§1) Cell line: human B cell lymphoma SU-DHL-4 and SU-DHL-6 cells (purchased from ATCC), cultured in vitro in RPMI 1640 medium containing 10% fetal bovine serum (FBS).
(§2) Each of the test compounds was all formulated with DMSO into a 10 mM stock solution, which was formulated into the desired concentration with serum-free medium when used.
(§3) A certain number of cells in logarithmic growth phase was inoculated in a 96-well culture plate. After 24 hours, the cells were added with the test compounds in different concentrations (1-40000 nM), and incubated for 72 hours. Each well was added with the MTT working solution. After 4 hours, the cells were lysed with the triple solution (10% SDS, 5% isobutanol, 0.012 mol/L HCl) at 37° C. overnight, and the OD value was measured at a wavelength of 570 nm by a microplate reader. […]
(§4) The half effective concentration IC50 was calculated using the non-linear regression method according to the inhibition rate of each concentration.
(§5) In the combined administration, the concentration ratio of compound A to compound B was 1:2 (for SU-DHL-4) and 1:4 (for SU-DHL-6). The combination index (CI) was calculated with Calcu-Syn program using the median effect method to evaluate the relationship between the two compounds during the combined administration (CI<1 refers to synergistic effect, CI=1 refers to additive effect, CI>1 refers to antagonistic effect).

[2] = system: human B cell lymphoma SU-DHL-6 cells; assay: Proliferation of SU-DHL-6 cells in vitro (MTT); assay type: cell-based; settings: single compound, 72 hours
Protocol: as §1, §2, §3, §4, §5

[3] = system: human B cell lymphoma DOHH-2 cells; assay: Proliferation of DOHH-2 cells in vitro (MTT); assay type: cell-based; settings: single compound, 72 hours
Protocol: Cell line: human B cell lymphoma DOHH-2 cells (purchased from DSMZ), cultured in vitro in RPMI 1640 medium containing 10% fetal bovine serum (FBS).
as §2
as §3, with “(1-100000” for “(1-40000”, “solution,” for “solution (10% SDS, 5% isobutanol, 0.012 mol/L HCl) at 37° C. overnight,”
The half effective concentration IC50 was calculated using the non-linear regression method according to the inhibition, rate of each concentration.
as §5, with “1:10.” for “1:2 (for SU-DHL-4) and 1:4 (for SU-DHL-6).”

[4] = system: human B cell lymphoma SU-DHL-4 cells subcutaneous transplantation tumor; assay: Subcutaneous transplantation tumor in mice inoculated with SU-DHL-4 cells; assay type: in vivo, SCID.BG mice; settings: SU-DHL-4 xenograft, PO; for Mean tumor volume D 0: baseline at first administration; for Mean tumor volume D 0 / % T/C D 14 / % tumor inhibition rate D 14 / Mean tumor volume D 14 / Complete regression (number of mice) / Partial regression (number of mice): 50 mg/kg each, BID, D 0-13; for Complete regression (number of mice) / Partial regression (number of mice): 8 mice per group; for tumor completely regressed, fraction of mice / tumor partially regressed, fraction of mice: 50 mg/kg; for tumor partially regressed, fraction of mice: text says QD×14
Description: Test animals: SCID.BG mice, 5-6 weeks old, female, purchased from Shanghai Lingchang Biotechnology Co., Ltd., with laboratory animals use license No.: SCXK (Shanghai) 2013-0018 and animal certificate No.: 2013001820833, feeding condition: SPF grade.
The test compounds were all formulated with 0.2% Tween 80+0.5% CMC solution, and diluted to the corresponding concentration.
(1) The mice were subcutaneously inoculated with SU-DHL-4 cells (B cell lymphoma SU-DHL-4 cells were purchased from ATCC). When the tumors grown to 100-150 mm^3, the animals were grouped according to the tumor volume (D0).
(§6) (2) Observation and recording: the tumor volume was measured 2 to 3 times per week, the mice were weighed, and the data were recorded.
(§7) The endpoint is mainly dependent on whether the tumor growth is delayed or whether the mouse is cured. The tumor volume (in mm^3) was measured twice a week with caliper in two dimensions.
(§8) The tumor volume (V) is calculated as: V=0.5×a×b^2, wherein a and b represent length and width, respectively; T/C (%)=(T−T0)/(C−C0)×100, wherein T and C represent the tumor volume at the end of the experiment; T0 and C0 represent the tumor volume at the beginning of the experiment. The T/C value (percentage) is indicative of anti-tumor efficacy. Tumor growth inhibition rate (TGI) (%)=100−T/C (%);
When the tumor regressed, the tumor growth inhibition rate (TGI) (%)=100−(T−T0)/T0×100
If the tumor volume is smaller than the initial volume, i.e. T<T0 or C<C0, it is defined as partial regression (PR); if the tumor completely disappears, it is defined as complete regression (CR).
(§9) (4) Data analysis: the statistics were summarized, including mean and standard error of mean (SEM), statistical analysis of differences in tumor volume between groups, and analysis of data obtained by drug interaction that was carried out at the optimal treatment time point after the last administration (Day 14 after grouping). One-way variance analysis was performed to compare tumor volume and tumor weight between groups. When a […] F-statistic was obtained (p<0.001, treatment variance vs. error variance), single-tailed Mann-Whitney statistical analysis was performed to compare tumor volumes of the two groups, and P<0.05 was considered as statistically significant.

[5] = system: human follicular lymphoma DOHH-2 cells subcutaneous transplantation tumor; assay: Subcutaneous transplantation tumor in nude mice inoculated with DOHH-2 cells; assay type: in vivo, BALB/cA-nude nude mice; settings: DOHH-2 xenograft, 50 mg/kg each, PO, BID, D 0-20; for Mean tumor volume D 0: baseline at first administration
Description: Test animals: BALB/cA-nude nude mice, 5-6 weeks old, female, purchased from Shanghai Lingchang Biotechnology Co., Ltd., with laboratory animals use license No.: SCXK (Shanghai) 2013-0018 and animal certificate No.: 2013001818958, feeding condition: SPF grade.
The test compounds were all formulated with 0.2% Tween 80+0.5% CMC solutions, and diluted to the corresponding concentration.
(1) The nude mice were subcutaneously inoculated with lymphoma DOHH-2 cells. When the tumors grown to 100-200 mm^3, the animals were grouped randomly (D0).
as §6, §7
as §8, with “efficacy.” for “efficacy. Tumor growth inhibition rate (TGI) (%)=100−T/C (%);”
as §9, with “21” for “14”, “the comparison between groups” for “single-tailed Mann-Whitney statistical analysis”, “using Games-Howell test. All data were analyzed using SPSS17.0,” for “to compare tumor volumes of the two groups,”

Row | SMILES | IC50 [1] | IC50 [2] | IC50 [3] | Mean tumor volume D 0 [4] | % T/C D 14 [4] | % tumor inhibition rate D 14 [4] | Mean tumor volume D 14 [4] | Complete regression (number of mice) [4] | Partial regression (number of mice) [4] | tumor completely regressed, fraction of mice [4] | tumor partially regressed, fraction of mice [4] | Mean tumor volume D 0 [5] | % T/C D 21 [5] | % tumor inhibition rate D 21 [5] | Mean tumor volume D 21 [5]
1 | CC#CC(=O)N1CC[C@@H](n2cc(-c3ccc(Oc4c(F)cccc4F)cc3)c3c(N)n[nH]c(=O)c32)C1 [Compound A] | 1060 nM | 711 nM | 325 nM | 122.4 mm^3 | 24% | 76% | 276.9 mm^3 | 1 | 1 | 1/8 | 1/8 | 111.1 mm^3 | 51% | 49% | 742.0 mm^3
2 | CCc1c(N(CC)C2CCOCC2)cc2oc(CN3CCCCC3)cc2c1C(=O)NCc1c(C)cc(C)[nH]c1=O [Compound B, N-((4,6-dimethyl-2-oxo-1,2-dihydropyridin-3-yl)methyl)-5-ethyl-6-(ethyl(tetrahydro-2H-pyran-4-yl)amino)-2-(piperidin-1-ylmethyl)benzofuran-4-carboxamide] | 2170 nM | 4660 nM | 5920 nM | 126.6 mm^3 | 40% | 60% | 384.7 mm^3 | 1 | 2 | 1/8 | 2/8 | 107.7 mm^3 | 65% | 35% | 914.1 mm^3
